Measured values published in patent publication EP0286418A1, “Anti-retroviral agents and delivery systems for the same” (priority 1987, dated 1988).

Experiments:
[1] = biological target: T1, HIV reverse transcriptase (Human immunodeficiency virus type 1 group M subtype B, UniProt P03367); test: reverse transcriptase assay on supernatant of chronically HIV-producing cells; format: cell-based; settings: for activity at 10 µg/mL: dose 10.0 micrograms/ml; for activity at 0.01 µg/mL: dose 0.01 micrograms/ml; for activity at 0.1 µg/mL: dose 0.1 micrograms/ml; for activity at 1 µg/mL: dose 1.0 micrograms/ml
T1 construct: endogenous in cells; host or cells: U.1 (clone of promonocytic U937) and 8.E6 (clone of lymphoid A.301), chronically HIV-producing
Experimental: Liposomes were tested for toxic effect on two types of cells which chronically produce HIV. One clone (8.E6) was derived from the lymphoid cell line A.301; the other clone (U.1) was derived from the promonocytic line U937. Cells (1×10⁶/well) in RPMI medium with 10% fetal calf serum were pipetted into a flat-bottom 96-well microtiter plate. To each well was added 50 microliters of solution containing ddCTP-liposomes, empty liposomes, free ddCTP or phosphate buffered saline. Fifty microliters of phorbol myristyl acetate (PMA) was then added to each well to a final concentration of 10⁻⁹ M for stimulation, or else 50 microliters of saline was added for non-stimulated configurations. The plates were incubated at 37°C in 7% CO₂ for about 48 hours. 100 microliters of supernatant was then taken from each well to analyze for reverse transcriptase (RT) activity using polyadenylate and oligo-deoxythymidine. To perform the RT assay, 10 microliters of supernatant containing RT was added to a cocktail containing poly A, oligo dT (Pharmacia, Inc. Piscataway, N.J., USA) MgCl₂, and ³²P-dTTP (Amersham) and incubated for 2 hours at 37°C. Ten microliters of the cocktail was then spotted onto DE81 paper, dried, and washed in 1X saline sodium citrate buffer. The paper was then dried, cut and counted on a Beckman LS 7000 scintillation counter.

[2] = test system: monocytes; test: superoxide generation by monocytes; format: cell-based, Human
Experimental: Human peripheral blood mononuclear cells were obtained by standard procedures employing continuous flow cell separation (leukapheresis), such as described in Wahl, et al., Cellular Immunol. 85:373-383 (1984). The preparation was diluted in phosphate-buffered saline and layered onto gradients of Ficoll-Paque (Pharmacia-PL Biochemicals, Piscataway, N.J., USA). After centrifugation, mononuclear cells were pipetted from the interface, washed, and suspended in DMEM-GG-FCS. They were then fractionated by countercurrent centrifugal elutriation. The procedure comprises the Beckman elutriation system including a J-21 Beckman Centrifuge, a JE-6 elutriator rotor, a stroboscope, and a Masterflex pump and pumphead. The cells were loaded into the rotor and fractionated by elution at increasing flow rates. Fractions 7 and 8, highly enriched for monocytes, were pooled for use.

[3] = in vitro; format: in vitro ADME; settings: serum-containing medium with cells
[4] = PMA-stimulated (1 nM) U.1 cells, normalized by average of empty liposome controls
[5] = U.1 cells, no PMA, relative to controls with no drug

In the case of `Nc1ccn([C@H]2CC[C@@H](COP(=O)(O)OP(=O)(O)OP(=O)(O)O)O2)c(=O)n1` [ddCTP, 2ʹ,3ʹ-dideoxycytidine-5ʹ-triphosphate], the activity at 10 µg/mL ([1]; 48 h, U.1 cells, no PMA, relative to controls with no drug) is reported as 69 ± 21%, the activity at 0.01 µg/mL [1, 4] is reported as 84% and the activity at 0.1 µg/mL [1, 4] is reported as 96%. It also gave an activity at 1 µg/mL [1, 4] of 75%, an activity at 10 µg/mL [1, 4] of 75% and an activity at 0.01 µg/mL [1, 5] of 67 ± 19%. For the same compound, the activity at 0.1 µg/mL [1, 5] was 80 ± 12%, the activity at 1 µg/mL [1, 5] was 61 ± 4% and the Superoxide ([2]; ddCTP 2.2 uM) was 1.21 (.02) nmoles/well. The Superoxide ([2]; ddCTP 11 uM) was 0.85 (.04) nmoles/well, the Superoxide ([2]; ddCTP 56 uM) was 0.77 (.04) nmoles/well and the Superoxide ([2]; ddCTP .0 uM) was 1.19 (.06) nmoles/well. The Superoxide ([2]; ddCTP .018 uM) was 1.33 (.05) nmoles/well, the Superoxide ([2]; ddCTP .09 uM) was 1.42 (.10) nmoles/well and the Superoxide ([2]; ddCTP .45 uM) was 1.33 (.08) nmoles/well. The “Percent of total drug 3H as ddCTP” value ([3]; 0.5 h) was 67.8% and the remaining at 72 h ([3]; Percent of total drug 3H as ddCTP) was 0%.
